Where a chain is given by its changes, count along the chain named.
Experiments:
hT1R1 S306A = molecular target: T1, hT1R1 S306A (Homo sapiens, UniProt Q7RTX1, S306A); experiment: Mutagenesis study, hT1R1 mutant S306A; assay type: cell-based; conditions: S306 mutation
T1 construct: expressed in transfected cells; host or cells: HEK293, transient transfection
T1 sequence (Q7RTX1 21-841 S306A): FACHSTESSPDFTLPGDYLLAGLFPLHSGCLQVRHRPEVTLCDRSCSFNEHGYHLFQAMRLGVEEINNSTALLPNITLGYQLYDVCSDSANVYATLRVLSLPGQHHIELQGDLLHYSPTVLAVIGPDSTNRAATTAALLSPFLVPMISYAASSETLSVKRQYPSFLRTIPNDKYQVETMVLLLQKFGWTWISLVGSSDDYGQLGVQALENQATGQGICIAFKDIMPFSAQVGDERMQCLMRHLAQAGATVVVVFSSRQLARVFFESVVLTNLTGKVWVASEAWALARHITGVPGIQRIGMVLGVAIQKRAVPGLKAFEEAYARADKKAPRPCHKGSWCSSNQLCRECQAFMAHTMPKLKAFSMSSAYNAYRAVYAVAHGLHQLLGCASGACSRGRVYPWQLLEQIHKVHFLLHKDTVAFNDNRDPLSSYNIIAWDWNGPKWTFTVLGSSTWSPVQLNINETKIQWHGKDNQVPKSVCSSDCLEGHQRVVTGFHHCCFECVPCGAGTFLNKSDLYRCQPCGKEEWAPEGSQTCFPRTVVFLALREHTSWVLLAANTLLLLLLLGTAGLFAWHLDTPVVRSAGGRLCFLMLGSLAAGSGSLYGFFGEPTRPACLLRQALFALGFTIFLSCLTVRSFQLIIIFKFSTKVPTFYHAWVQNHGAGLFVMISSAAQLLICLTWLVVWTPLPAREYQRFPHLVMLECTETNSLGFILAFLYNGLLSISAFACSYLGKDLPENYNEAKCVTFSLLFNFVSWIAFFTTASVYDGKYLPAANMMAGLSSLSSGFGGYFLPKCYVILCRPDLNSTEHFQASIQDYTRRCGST
T1 sequence (Q923K1 21-858 partner): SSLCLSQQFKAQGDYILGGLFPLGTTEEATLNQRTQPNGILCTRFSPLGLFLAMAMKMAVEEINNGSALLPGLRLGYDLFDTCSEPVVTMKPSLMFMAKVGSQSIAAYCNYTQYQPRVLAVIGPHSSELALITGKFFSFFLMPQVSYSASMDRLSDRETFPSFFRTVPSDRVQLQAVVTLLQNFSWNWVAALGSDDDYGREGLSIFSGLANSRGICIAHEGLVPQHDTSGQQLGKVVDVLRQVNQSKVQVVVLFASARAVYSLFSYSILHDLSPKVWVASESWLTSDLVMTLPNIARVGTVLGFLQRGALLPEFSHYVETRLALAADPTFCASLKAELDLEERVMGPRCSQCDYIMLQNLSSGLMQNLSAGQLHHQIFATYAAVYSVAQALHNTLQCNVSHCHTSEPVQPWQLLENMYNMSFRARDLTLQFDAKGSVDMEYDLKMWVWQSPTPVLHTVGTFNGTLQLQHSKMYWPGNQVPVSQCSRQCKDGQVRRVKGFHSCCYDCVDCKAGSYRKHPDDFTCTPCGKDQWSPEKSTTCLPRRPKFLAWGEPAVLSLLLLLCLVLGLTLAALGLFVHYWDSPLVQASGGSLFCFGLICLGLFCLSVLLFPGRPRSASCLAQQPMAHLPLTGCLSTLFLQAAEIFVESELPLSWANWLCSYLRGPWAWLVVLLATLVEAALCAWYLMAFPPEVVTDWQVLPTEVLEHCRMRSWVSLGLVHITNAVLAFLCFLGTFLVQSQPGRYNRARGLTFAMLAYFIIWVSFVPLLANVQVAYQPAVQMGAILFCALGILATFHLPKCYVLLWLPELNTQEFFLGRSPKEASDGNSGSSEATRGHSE
Excerpt: (§1) In order to further define the interaction sites of umami stimuli, we performed site-directed mutagenesis on human T1R1 VFT. The mutagenesis was done using the routine PCR-based method. […] were transiently transfected into HEK293 cell together with the rat T1R3 wild type cDNA, and the transfected cells were characterized using an automated FLIPR machine or a calcium imaging system as described in our previous patent applications.

hT1R1 S172A = molecular target: T2, hT1R1 S172A (Homo sapiens, UniProt Q7RTX1, S172A); experiment: Mutagenesis study, hT1R1 mutant S172A; assay type: cell-based; conditions: S172 mutant, FIG. 11
T2 construct: expressed in transfected cells; host or cells: HEK293, transient transfection
T2 sequence (Q7RTX1 21-841 S172A): T1 sequence (Q7RTX1 21-841 S306A) with S152A, A286S
T2 sequence (Q923K1 21-858 partner): T1 sequence (Q923K1 21-858 partner)
Excerpt: as §1

| Structure (SMILES) | enhancement activity of GMP (hT1R1 S306A) | activity against L-Glu (hT1R1 S172A) |
| --- | --- | --- |
| Nc1nc2c(ncn2[C@@H]2O[C@H](COP(=O)(O)O)[C@@H](O)[C@H]2O)c(=O)[nH]1 [GMP, guanosine-5′-monophosphate] | similarly affected | – |
| N[C@@H](CCC(=O)O)C(=O)O [L-Glu, L-glutamate] | – | significant reduced activity |

Source: US20080306076A1, “MODULATION OF CHEMOSENSORY RECEPTORS AND LIGANDS ASSOCIATED THEREWITH” (SENOMYX, INC., priority 2007, published 2008)
